Results: patent US8178506B2, “Oligomeric compounds and compositions for use in modulation of small non-coding RNAs” (Regulus Therapeutics Inc., priority 2003, dated 2012)
In the oligonucleotide strings, read from the 5' end, every base follows the letter of its sugar. An asterisk marks phosphorothioate; unmarked linkages are phosphodiester. Other units and linkages are bracketed, terminal groups are in braces. A string of capitals states the bases alone. e = 2'-O-(2-methoxyethyl) (MOE); [5mC] = 5-methylcytosine

How the values were obtained:
[1] = tested on: PPARγ; assay: PPARγ mRNA expression in adipocytes (real-time PCR); assay type: cell-based, human; conditions: differentiating adipocytes transfected with oligomeric compound; Table 75
[2] = tested on: adipocytes; assay: Triglyceride accumulation assay in adipocytes; assay type: cell-based, human; conditions: differentiating adipocytes transfected with oligomeric compound; Table 75
[3] = tested on: Glut4; assay: Glut4 mRNA expression in adipocytes (real-time PCR); assay type: cell-based, human; conditions: differentiating adipocytes transfected with oligomeric compound; Table 75
[4] = tested on: HSL; assay: HSL mRNA expression in adipocytes (real-time PCR); assay type: cell-based, human; conditions: differentiating adipocytes transfected with oligomeric compound; Table 75
[5] = tested on: HuVECs; assay: Endothelial tube formation assay in HuVECs; conditions: for % Activity Relative to UTC (tube formation): 75 nM oligomeric compound; for tube formation: 75 nM
Protocol: In some embodiments, HUVECs are used to measure the effects of oligomeric compounds of the invention on endothelial tube formation activity. The tube formation assay is performed using an in vitro Angiogenesis Assay Kit (Chemicon International, Temecula, Calif.).
Untreated control cells receive LIPOFECTIN™ only.
Approximately fifty hours after transfection, cells are transferred to 96-well plates coated with ECMatrix™ (Chemicon International). Under these conditions, untreated HUVECs form tube-like structures. After an overnight incubation at 37° C., treated and untreated cells are inspected by light microscopy. Tube formation in cells treated with oligomeric compounds is compared to that in untreated control cells. Individual wells are assigned discrete scores from 1 to 5 depending on the extent of tube formation. A score of 1 refers to a well with no tube formation while a score of 5 is given to wells where all cells are forming an extensive tubular network.
In one embodiment, primary human umbilical vein endothelial cells (HuVECs) were used to measure the effects of oligomeric compounds targeted to miRNAs on tube formation activity. HuVECs were routinely cultured in EBM (Clonetics Corporation, Walkersville, Md.) supplemented with SingleQuots supplements (Clonetics Corporation, Walkersville, Md.). […] HuVECs are plated at 3000 cells/well in 96-well plates. One day later, cells are transfected with oligomeric compounds. The tube formation assay is performed using an in vitro Angiogenesis Assay Kit (Chemicon International, Temecula, Calif.).
ISIS 29248 and ISIS 196103 are chimeric 5-10-52′-MOE gapmer oligonucleotides. […] All cytidine residues are 5-methylcytidines. ISIS 342672 (SEQ ID NO: 789) contains 13 mismatches with respect to the mature mir-143 miRNA, and was also used as a negative control. ISIS 342672 is a uniform 2′-MOE phosphorothioate oligomeric compound 22 nucleotides in length. All cytidine residues are 5-methylcytidines.
Oligomeric compound was mixed with LIPOFECTIN™ (Invitrogen Life Technologies, Carlsbad, Calif.) in OPTI-MEM™ (Invitrogen Life Technologies, Carlsbad, Calif.) to achieve a final concentration of 75 nM of oligomeric compound and 2.25 μg/mL LIPOFECTIN™. Before adding to cells, the oligomeric compound, LIPOFECTIN™ and OPTI-MEM™ were mixed thoroughly and incubated for 0.5 hrs. Untreated control cells received LIPOFECTIN™ only. […] Compounds targeted to miRNAs were tested in triplicate, and ISIS 29848 was tested in up to six replicates. […] 100 μL of full growth medium was added to each well. Fifty hours after transfection, cells are transferred to 96-well plates coated with ECMa-trix™ (Chemicon Inter-national). Under these conditions, untreated HuVECs form tube-like structures.

[6] = tested on: aP2; assay: aP2 mRNA expression in adipocytes (real-time PCR); assay type: cell-based, human; conditions: differentiating adipocytes transfected with oligomeric compound; Table 75

In the case of “327879 (antisense eA*eA*e[5mC]*eA*eA*eA*eA*eT*e[5mC]*eA*e[5mC]*eT*eA*eG*eT*e[5mC]*eT*eT*e[5mC]*e[5mC]*eA) [compound 327879]”, the “PPAR gamma mRNA” value [1] is reported as 81 percentage of untreated control (UTC), the “TG (triglyceride accumulation)” value [2] is reported as 59 percentage of untreated control (UTC) and the “GLUT4 mRNA” value [3] is reported as 99 percentage of untreated control (UTC). The “HSL mRNA” value [4] was 103 percentage of untreated control (UTC), the “% Activity Relative to UTC (tube formation)” value (shortened to “% Activity Relative to UTC”) ([5]; Table 56) was 71.4% and the “aP2 mRNA” value [6] was 103 percentage of untreated control (UTC).
For “327881 (antisense eA*eA*eA*eA*eG*eA*eG*eA*e[5mC]*e[5mC]*eG*eG*eT*eT*e[5mC]*eA*e[5mC]*eT*eG*eT*eG*eA) [compound 327881]”, the “PPAR gamma mRNA” value [1] was 98 percentage of untreated control (UTC), the “TG (triglyceride accumulation)” value [2] was 91 percentage of untreated control (UTC) and the “GLUT4 mRNA” value [3] was 97 percentage of untreated control (UTC). The “HSL mRNA” value [4] was 93 percentage of untreated control (UTC), the “% Activity Relative to UTC” value ([5]; Table 56) was 50.0% and the “aP2 mRNA” value [6] was 95 percentage of untreated control (UTC).
In the case of “327891 (antisense eG*eG*e[5mC]*e[5mC]*eG*eT*eG*eA*e[5mC]*eT*eG*eG*eA*eG*eA*e[5mC]*eT*eG*eT*eT*eA) [compound 327891]”, the “PPAR gamma mRNA” value [1] is reported as 50 percentage of untreated control (UTC), the “TG (triglyceride accumulation)” value [2] is reported as 22 percentage of untreated control (UTC) and the “GLUT4 mRNA” value [3] is reported as 47 percentage of untreated control (UTC). The “HSL mRNA” value [4] was 52 percentage of untreated control (UTC), the “% Activity Relative to UTC” value ([5]; Table 56) was 50.0% and the “aP2 mRNA” value [6] was 56 percentage of untreated control (UTC).
“327898 (antisense eG*eT*eA*eG*eT*eG*e[5mC]*eT*eT*eT*e[5mC]*eT*eA*e[5mC]*eT*eT*eT*eA*eT*eG) [compound 327898]” was tested, and the “PPAR gamma mRNA” value [1] was 101 percentage of untreated control (UTC), the “TG (triglyceride accumulation)” value [2] was 102 percentage of untreated control (UTC) and the “GLUT4 mRNA” value [3] was 82 percentage of untreated control (UTC). The “HSL mRNA” value [4] was 92 percentage of untreated control (UTC), the “% Activity Relative to UTC” value ([5]; Table 56) was 100.0% and the “aP2 mRNA” value [6] was 96 percentage of untreated control (UTC).
“327915 (antisense eA*e[5mC]*eA*eT*eG*eG*eT*eT*eA*eG*eA*eT*e[5mC]*eA*eA*eG*e[5mC]*eA*e[5mC]*eA*eA) [compound 327915]” was tested, and the “% Activity Relative to UTC” value ([5]; Table 57) was 69.0%.
For “327932 (antisense eA*eG*eG*e[5mC]*eA*eT*eA*eG*eG*eA*eT*eG*eA*e[5mC]*eA*eA*eA*eG*eG*eG*eA*eA) [compound 327932]”, the “% Activity Relative to UTC” value ([5]; Table 58) was 51.9%.
With “327947 (antisense eT*e[5mC]*eA*eG*eT*eT*eA*eT*e[5mC]*eA*e[5mC]*eA*eG*eT*eA*e[5mC]*eT*eG*eT*eA) [compound 327947]” the “% Activity Relative to UTC” value ([5]; Table 58) was 81.5%.
With “327948 (antisense eG*e[5mC]*eT*eG*eA*eG*eT*eG*eT*eA*eG*eG*eA*eT*eG*eT*eT*eT*eA*e[5mC]*eA) [compound 327948]” the “% Activity Relative to UTC” value ([5]; Table 59) was 33.3%.
With “342672 (antisense eA*eT*eA*e[5mC]*e[5mC]*eG*e[5mC]*eG*eA*eT*e[5mC]*eA*eG*eT*eG*e[5mC]*eA*eT*e[5mC]*eT*eT*eT) [compound 342672]” the “% Activity Relative to UTC” value ([5]; Table 56) was 46.4%, the “% Activity Relative to UTC” value ([5]; Table 57) was 58.6% and the “% Activity Relative to UTC” value ([5]; Table 58) was 55.6%. For the same substance, the “% Activity Relative to UTC” value ([5]; Table 59) was 60.0%.
With “AAAGTGTCAGATACGGTGTGG (anti-miR; chemistry not fully specified) [ISIS 327944]” the tube formation [5] was “suppressed tube formation”.
“ATCCAATCAGTTCCTGATGCAGTA (chemistry not given here) [ISIS 327966]” was tested, and the tube formation [5] was “suppressed tube formation”.
For “CCGGCTGCAACACAAGACACGA (anti-miR; chemistry not fully specified) [ISIS 327958]”, the tube formation [5] was “suppressed tube formation”.
With “GCTGAGTGTAGGATGTTTACA (anti-miR; chemistry not fully specified) [ISIS 327948]” the tube formation [5] was “suppressed tube formation”.
